Key:
BoNT/A induced paralysis = conditions: cited from earlier work
[1] = in vivo; cited from earlier work
AChE [2] = conditions: cited from earlier work
[3] = molecular target: AChE purified from Electrophorus electricus (Electric eel) (Electrophorus electricus, UniProt O42275); assay: biochemical; assay type: biochemical
BChE = BChE (Equus caballus, UniProt P81908); assay type: biochemical, equine
cholinergic esterases = assay type: biochemical
AChE [4] = molecular target: AChE (Electrophorus electricus, UniProt O42275); assay type: biochemical
AChE (Electrophorus electricus, UniProt O42275), sequence (O42275 24-633): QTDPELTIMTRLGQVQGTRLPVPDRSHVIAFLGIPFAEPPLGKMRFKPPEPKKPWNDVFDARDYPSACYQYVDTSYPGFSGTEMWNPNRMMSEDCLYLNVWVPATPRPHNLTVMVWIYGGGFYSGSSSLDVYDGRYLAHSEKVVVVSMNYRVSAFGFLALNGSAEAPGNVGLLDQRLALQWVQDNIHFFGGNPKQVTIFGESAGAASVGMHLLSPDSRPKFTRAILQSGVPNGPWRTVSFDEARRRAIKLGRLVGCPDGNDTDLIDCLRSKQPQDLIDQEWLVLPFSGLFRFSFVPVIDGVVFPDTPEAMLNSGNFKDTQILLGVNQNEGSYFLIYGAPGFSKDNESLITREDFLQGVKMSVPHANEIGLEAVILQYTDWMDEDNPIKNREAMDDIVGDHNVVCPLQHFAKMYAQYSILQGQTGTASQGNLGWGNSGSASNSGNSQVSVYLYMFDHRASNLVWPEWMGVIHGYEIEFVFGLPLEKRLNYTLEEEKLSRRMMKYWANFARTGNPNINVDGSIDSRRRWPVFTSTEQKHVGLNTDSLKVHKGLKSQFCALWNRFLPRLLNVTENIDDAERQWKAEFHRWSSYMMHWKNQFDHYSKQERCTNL

AChE purified from Electrophorus electricus (Electric eel), sequence (O42275 24-633): as above
BChE, sequence (P81908 whole entry): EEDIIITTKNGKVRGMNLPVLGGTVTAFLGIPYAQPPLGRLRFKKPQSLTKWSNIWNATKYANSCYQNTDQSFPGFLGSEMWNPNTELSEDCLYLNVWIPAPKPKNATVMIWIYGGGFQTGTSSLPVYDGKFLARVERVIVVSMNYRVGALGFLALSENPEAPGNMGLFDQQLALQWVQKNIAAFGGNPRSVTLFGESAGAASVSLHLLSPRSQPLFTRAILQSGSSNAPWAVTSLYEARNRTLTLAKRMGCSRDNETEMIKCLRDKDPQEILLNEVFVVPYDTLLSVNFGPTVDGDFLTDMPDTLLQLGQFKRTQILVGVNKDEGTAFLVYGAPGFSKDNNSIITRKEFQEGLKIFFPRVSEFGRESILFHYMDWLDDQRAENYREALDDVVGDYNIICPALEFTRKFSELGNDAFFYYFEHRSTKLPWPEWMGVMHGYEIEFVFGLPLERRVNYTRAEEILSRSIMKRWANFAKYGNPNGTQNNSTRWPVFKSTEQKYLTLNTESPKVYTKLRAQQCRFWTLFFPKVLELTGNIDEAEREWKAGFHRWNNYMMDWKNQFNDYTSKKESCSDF

Which “paralysis reversal (in words)” value (BoNT/A induced paralysis) does the source give for `Nc1cncc(N)c1N` [3,4,5-triaminopyridine] here?
Its value is “paralysis reversal”.

Which “toxicity issues at high doses (in words)” value [1] does the source give for `Nc1ccncc1N` [3,4-DAP, 3,4-diaminopyridine] here?
Its value is “seizures”.

With `C#CC[n+]1ccc(N)c(N)c1` [3,4-diamino-1-(prop-2-ynl)pyridinium] as the compound, how does the “paralysis reversal (in words)” value (BoNT/A induced paralysis) read?
Its value is “paralysis reversal”.

With `Nc1ccncc1` [4-AP, 4-aminopyridine] as the compound, how does the “toxicity issues at high doses (in words)” value [1] read?
Its value is “seizures”.

For `CC(=O)OCC[N+](C)(C)C` [ACh, acetylcholine], which Km (AChE [2]) is on record?
Its Km is 400 µM.

What does the source list for `CCC(=O)Oc1ccc(COC(=O)Nc2ccncc2N)cc1` [Compound 6b]?
binding to AChE more tightly than Km for ACh [3]: 100 fold; selectivity of AChE over BChE (in words) [3]: moderate selectivity; apparent kcat relative to natural substrate BCh (BChE): approximately 10^−4

With `CC(C)C(=O)Oc1ccc(COC(=O)Nc2ccncc2N)cc1` [Compound 6d] as the compound, how does the “binding to AChE more tightly than Km for ACh” value [3] read?
Its value is 100 fold.

What about the “selectivity of AChE over BChE (in words)” value [3] of the same compound?
Its value is “moderate selectivity”.

What about the “apparent kcat relative to natural substrate BCh” value (BChE) of the same compound?
The value was “approximately 10^−4”.

With `COC(=O)Nc1cnccc1N` [Compound 16] as the compound, how does the “enzymatic generation of 3,4-DAP (in words)” value (from here on “enzymatic generation”) (cholinergic esterases) read?
The value was “failed as pseudosubstrates to generate 3,4-DAP enzymatically”.

For `COC(=O)Nc1ccncc1NC(=O)OC` [Compound 17], which “enzymatic generation” value (cholinergic esterases) is on record?
Its value is “failed as pseudosubstrates to generate 3,4-DAP enzymatically”.

With `COC(=O)Nc1ccncc1N` [Compound 19] as the compound, how does the “enzymatic generation” value (cholinergic esterases) read?
Its value is “failed as pseudosubstrates to generate 3,4-DAP enzymatically”.

For `CC(=O)Nc1ccncc1N` [Compound 21], which “kinetic mechanism of inhibition of AChE” value [3] is on record?
Its value is “competitive inhibition”.

What about the “release of 3,4-DAP upon incubation with AChE (in words)” value (AChE [4]) of the same compound?
Its value is “did not undergo internal release”.

Which Ki [3] does the source give for `CC(C)OC(=O)CCC(=O)Nc1ccncc1N` [Compound 32] here?
The Ki was 3 µM.

And the “selectivity of AChE over BChE (in words)” value [3]?
Its value is “inhibited AChE selectively over BChE”.

What about the “release of 3,4-DAP upon incubation with AChE (in words)” value (AChE [4]) of the same compound?
The value was “negligible release of 3,4-DAP”.

What about the “half-life in mouse sera” value of the same compound?
Its value is 2.8 h.

Reference: publication PMC3196298 (Bioorganic & medicinal chemistry, 2011)
